Values after ≈ are worked out from the molar mass of the structure shown. Where two headings read alike, the source gives them in different places.
Tests used:
[1] = system: MRSA; assay: Lipid II supplementation rescue of MRSA growth; type: cell-based, Staphylococcus aureus; conditions: lethal concentrations of antibiotic, with lipid II in the media
Text: (§1) FIGS. 21A-21D show (FIG. 21A) SYTOX Green fluorescence assay for antibiotic-induced bacterial membrane permeability. Vancomycin was used as a negative control, and daptomycin was used as a positive control. Error bars represent the standard error of the mean across 3 biological replicates. […] Vancomycin was used as a positive control. The UDP-MurNAc-pentapeptide was identified by mass spectrometry, with an [M+H]^+ of 1150.3590. Error bars represent the standard deviation of three biological replicates. […] Lipid II cannot rescue bacteria grown in the presence of ciprofloxacin (an inhibitor of DNA replication). Data from three biological replicates are shown. […] Vancomycin was used as a positive control. Lipid II was boiled to remove the lipid tail, and de-lipidated lipid II was quantified by mass spectrometry, with an [M+H]^+ of 1331.5362. Error bars represent the standard deviation of three biological replicates.
Lipid II is a crucial peptidoglycan building block downstream of UDP-MurNAc-pentapeptide and is the target of several antibiotics, including vancomycin. Bacteria were grown in the presence of lethal concentrations of antibiotics with and without supplementation of lipid II into the media. […] These lipids are the targets of numerous antibiotics. Compounds that bind to lipid II are known to result in its accumulation in cells, while compounds that bind to C55-P or C55-PP result in a reduction in lipid II levels. […] The lipid tail of lipid II can be removed by boiling in acidic conditions, allowing quantification by LC-MS. Following this protocol, an accumulation of a mass matching de-lipidated lipid II when bacteria were treated with either compounds of Formula I or vancomycin (FIG. 21D) was observed. The identity of this molecule was confirmed by tandem mass spectrometry and compared to published fragmentation data. Without being bound by theory, it is believed that compounds of Formula I target the bacterial cell wall by binding to lipid II and preventing its polymerization and cross-linking into peptidoglycan.

[2] = system: MRSA; conditions: after 30 days, identical conditions
Text: Fold change in MIC for one culture grown in the presence of sub-inhibitory levels of ciprofloxacin for 30 days is shown as a positive control.
An attempt to culture MRSA mutants resistant to compounds of Formula I was made by subculturing two independent cultures of bacteria continuously in the presence of non-lethal concentrations of 5.

[3] = system: vancomycin-resistant Enterococcus faecalis (VRE); assay: Growth inhibition assay, minimum inhibitory concentration against VRE; type: cell-based
Protocol: (§2) Growth Inhibition Assays. Compounds were prepared in DMSO to a concentration of 10 mM. DMSO was used as a vehicle negative control, and vancomycin (MRSA) and ampicillin (VRE) were also prepared as positive controls for minimum inhibitory concentration (MIC) tests. Compounds were tested for antimicrobial activity against MRSA and VRE at 100, 50, 25, 12.5, 6.25, 3.13, 1.56, 0.78, and 0.39 μM. MRSA was grown in tryptic soy broth and VRE was grown in brain heart infusion medium. Overnight cultures of bacteria were diluted to OD600=0.1 and 50 μL of cell culture broth was added to each well. Media (50 μL) containing compound at the appropriate concentration was then added to the cell cultures and the plates were sealed and incubated at 37° C. overnight. Plates were then read for OD600 using a PerkinElmer Envision 2100 multimode plate reader (PerkinElmer, Waltham, MA, USA). […] All samples were tested in triplicate.
(§3) Determination of Minimum Inhibitory Concentration. All compounds were freshly dissolved in DMSO at a stock solution of 10 mM. DMSO (solvent vehicle) was used as a negative control and vancomycin and ampicillin were used as positive controls for MRSA and VRE, respectively. Compounds were dispensed into 96-well plates at 100, 50, 25, 12.5, 6.25, 3.13, 1.56, 0.78, and 0.39 μM. Overnight cultures of MRSA grown in tryptic soy broth and VRE grown in brain heart infusion medium were diluted to OD600 of 0.1, and 50 μL of fresh cell culture broth was added to each well. The plates were sealed and incubated at 37° C. overnight. Plates were then monitored for OD600 using a PerkinElmer Envision 2100 multimode plate reader (PerkinElmer, Waltham, MA, USA).

[4] = system: methicillin-resistant Staphylococcus aureus (MRSA); assay: Growth inhibition assay, minimum inhibitory concentration against MRSA; type: cell-based; conditions: for MIC: Staphylococcus aureus
Protocol: as §2, §3

[5] = system: lipid II in MRSA; assay: Accumulation of lipid II in MRSA, LC-MS of de-lipidated lipid II; type: cell-based, Staphylococcus aureus; conditions: compared to DMSO
Text: as §1
Lipid II is a crucial peptidoglycan building block downstream of UDP-MurNAc-pentapeptide and is the target of several antibiotics, including vancomycin. Bacteria were grown in the presence of lethal concentrations of antibiotics with and without supplementation of lipid II into the media. […] These lipids are the targets of numerous antibiotics. […] The lipid tail of lipid II can be removed by boiling in acidic conditions, allowing quantification by LC-MS. […]

[6] = system: UDP-MurNAc-pentapeptide in MRSA; assay: Accumulation of cell wall precursor UDP-MurNAc-pentapeptide in MRSA; type: cell-based, Staphylococcus aureus; conditions: compared to DMSO
Text: (§4) FIGS. 21A-21D show (FIG. 21A) SYTOX Green fluorescence assay for antibiotic-induced bacterial membrane permeability. Vancomycin was used as a negative control, and daptomycin was used as a positive control. Error bars represent the standard error of the mean across 3 biological replicates. […] Vancomycin was used as a positive control. […] Error bars represent the standard deviation of three biological replicates. […] Data from three biological replicates are shown. […] Vancomycin was used as a positive control. […] Error bars represent the standard deviation of three biological replicates.
(§5) The effects of compounds of Formula I on the bacterial cell wall were thus investigated. […] The effects of compounds of Formula I on cell wall biosynthesis was investigated by looking for accumulation of the cell wall precursor molecule UDP-MurNAc-pentapeptide (FIG. 21B).

[7] = system: MRSA; assay: SYTOX Green fluorescence assay for bacterial membrane permeability; type: cell-based, Staphylococcus aureus
Text: as §4, §5

[8] = Enterococcus faecalis, Table 6, read-out: Minimal inhibitory concentrations, E. faecalis (vancomycin resistant)
[9] = Table 6, read-out: Minimal inhibitory concentrations, S. aureus (methicillin resistant)

## O=C(O)c1cn(C2CC2)c2cc(N3CCNCC3)c(F)cc2c1=O [ciprofloxacin]
[1]
  restoration of MRSA growth by lipid II supplementation: not able to rescue bacterial growth
[2]
  increase in MIC: approximately 37 fold

## CC(C)c1c(O)cc(/C=C/c2ccccc2)cc1O [compound 1, tapinarof, reference compound]
[3]; [8]
  MIC: 51 µM (≈ 13 µg/mL)
[3]; read-out: MIC
  MIC: 50.5 µM (≈ 12.8 µg/mL)
[4]; [9]
  MIC: 27 µM (≈ 6.87 µg/mL)
[4]; read-out: MIC
  MIC: 27 µM (≈ 6.87 µg/mL)

## CC(C)c1c(O)cc(C2OC2c2ccccc2)cc1O (stereo not drawn) [compound 2, stilbene epoxide, reference compound]
[3]
  antibiotic activity against VRE (in words): little to no activity
[4]
  antibiotic activity against MRSA (in words): little to no activity

## CC(C)C1=C(O)C(=O)C(/C=C/c2ccccc2)=C(c2c(/C=C/c3ccccc3)cc(O)c(C(C)C)c2O)C1=O [compound 5, duotap-520]
[5]
  accumulation of lipid II (de-lipidated lipid II): Accumulation
[6]
  level of UDP-MurNAc-pentapeptide: Accumulation
[1]
  restoration of MRSA growth by lipid II supplementation: restore growth

## Oc1cc(O)cc(/C=C/c2ccccc2)c1 [compound 6, pinosylvin, reference compound]
[3]; [8]
  MIC: > 100 µM
[4]; [9]
  MIC: > 100 µM

## Oc1ccc(C=Cc2cc(O)cc(O)c2)cc1 [compound 7, resveratrol, reference compound]
[3]; [8]
  MIC: 14 µM (≈ 3.2 µg/mL)
[4]; [9]
  MIC: 25 µM (≈ 5.71 µg/mL)

## O=C1C=C(O)C(=O)C(/C=C/c2ccccc2)=C1c1c(O)cc(O)cc1/C=C/c1ccccc1 [compound 8, duotap-436]
[3]
  activity against VRE: 6 µg/mL
  antibiotic activity against VRE (in words): significantly enhanced antibiotic activity compared to 6
[3]; [8]
  MIC: 6 µM (≈ 2.62 µg/mL)
[4]
  antibiotic activity against MRSA (in words): significantly enhanced antibiotic activity compared to 6
[4]; [9]
  MIC: 4 µM (≈ 1.75 µg/mL)

## O=C1C=C(O)C(=O)C(/C=C/c2ccc(O)cc2)=C1c1c(O)cc(O)cc1/C=C/c1ccc(O)cc1 [compound 9, duotap-468]
[3]
  antibiotic activity against VRE (in words): no enhancement of activity
[3]; [8]
  MIC: > 100 µM
[4]
  antibiotic activity against MRSA (in words): no enhancement of activity
[4]; [9]
  MIC: > 100 µM

## CCCCCCCCCC(=O)N[C@@H](Cc1c[nH]c2ccccc12)C(=O)N[C@H](CC(N)=O)C(=O)N[C@@H](CC(=O)O)C(=O)N[C@@H]1C(=O)NCC(=O)N[C@@H](CCCN)C(=O)N[C@@H](CC(=O)O)C(=O)N[C@H](C)C(=O)N[C@@H](CC(=O)O)C(=O)NCC(=O)N[C@H](CO)C(=O)N[C@@H]([C@H](C)CC(=O)O)C(=O)N[C@@H](CC(=O)c2ccccc2N)C(=O)O[C@@H]1C [daptomycin]
[7]
  membrane permeability: increase in membrane permeability

## CN[C@H](CC(C)C)C(=O)N[C@H]1C(=O)N[C@@H](CC(N)=O)C(=O)N[C@H]2C(=O)N[C@H]3C(=O)N[C@H](C(=O)N[C@H](C(=O)O)c4cc(O)cc(O)c4-c4cc3ccc4O)[C@H](O)c3ccc(c(Cl)c3)Oc3cc2cc(c3O[C@@H]2O[C@H](CO)[C@@H](O)[C@H](O)[C@H]2O[C@H]2C[C@](C)(N)[C@H](O)[C@H](C)O2)Oc2ccc(cc2Cl)[C@H]1O [vancomycin, reference compound]
[5]
  accumulation of lipid II (de-lipidated lipid II): accumulation
[6]
  level of UDP-MurNAc-pentapeptide: significant increase
[1]
  restoration of MRSA growth by lipid II supplementation: restored MRSA growth to antibiotic-free levels

## lumiquinone A [compound 3, reference compound]
[3]
  antibiotic activity against VRE (in words): little to no activity
[4]
  antibiotic activity against MRSA (in words): little to no activity

Source: US12286398B2, “Anti-bacterial stilbene derivatives and methods of use” (YALE UNIVERSITY, priority 2019, dated 2025)
